Target: T1, human recombinant HDAC6 (Homo sapiens, UniProt Q9UBN7)
T1 construct: purchased Calbiochem 382180
T1 sequence (Q9UBN7 1-1215): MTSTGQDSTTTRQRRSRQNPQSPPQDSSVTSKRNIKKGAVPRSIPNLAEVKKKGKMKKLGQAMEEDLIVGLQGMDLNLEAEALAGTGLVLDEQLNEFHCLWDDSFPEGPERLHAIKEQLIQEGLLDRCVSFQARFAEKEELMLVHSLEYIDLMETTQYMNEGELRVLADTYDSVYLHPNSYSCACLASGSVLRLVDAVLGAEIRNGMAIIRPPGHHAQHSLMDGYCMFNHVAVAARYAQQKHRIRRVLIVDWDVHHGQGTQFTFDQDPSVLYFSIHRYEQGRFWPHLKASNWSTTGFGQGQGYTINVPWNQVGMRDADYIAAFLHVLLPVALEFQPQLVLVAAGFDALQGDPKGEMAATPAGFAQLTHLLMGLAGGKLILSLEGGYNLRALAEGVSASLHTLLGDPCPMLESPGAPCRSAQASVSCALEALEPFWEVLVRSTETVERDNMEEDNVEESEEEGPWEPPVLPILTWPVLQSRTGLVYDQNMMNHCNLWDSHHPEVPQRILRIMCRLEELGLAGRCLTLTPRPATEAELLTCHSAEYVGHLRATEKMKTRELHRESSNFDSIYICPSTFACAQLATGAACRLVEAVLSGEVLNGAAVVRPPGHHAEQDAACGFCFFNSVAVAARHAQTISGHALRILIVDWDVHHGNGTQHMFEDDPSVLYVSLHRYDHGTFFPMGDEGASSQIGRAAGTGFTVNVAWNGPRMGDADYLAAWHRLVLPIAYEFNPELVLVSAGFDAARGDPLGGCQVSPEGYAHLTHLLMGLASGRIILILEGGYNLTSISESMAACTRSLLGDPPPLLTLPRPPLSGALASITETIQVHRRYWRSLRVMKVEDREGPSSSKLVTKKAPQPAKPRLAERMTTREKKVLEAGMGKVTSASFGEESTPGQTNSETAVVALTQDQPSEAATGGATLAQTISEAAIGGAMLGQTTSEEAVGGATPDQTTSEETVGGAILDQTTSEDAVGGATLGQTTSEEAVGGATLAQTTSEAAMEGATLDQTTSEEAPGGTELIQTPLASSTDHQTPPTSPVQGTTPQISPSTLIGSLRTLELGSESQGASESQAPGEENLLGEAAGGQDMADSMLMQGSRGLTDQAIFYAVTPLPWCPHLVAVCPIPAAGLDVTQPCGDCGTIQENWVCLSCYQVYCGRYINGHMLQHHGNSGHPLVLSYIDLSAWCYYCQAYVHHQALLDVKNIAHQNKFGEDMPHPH
Assay: HDAC6 enzyme activity inhibition assay (HDAC Fluorimetric Drug Discovery Kit)
Type: biochemical
Conditions: for HDAC6 selectivity (fold): HDAC6 over HDAC1; for IC50: human recombinant HDAC6, same protocol as HDAC1, read-out: HDAC6
Outline: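 Fluorimetric deacetylase assay: 5-fold serial compound dilutions, 0.3 μg recombinant human enzyme (HDAC1 or HDAC6, same protocol), 10 μM Fluor de Lys-SIRT1 substrate, 60 min at 30 °C. Signal developed 30 min, measured at 360/460 nm; IC50 values derived.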

SMILES	HDAC6 selectivity (fold)	IC50 [nM]
O=C(N1CCS(=O)(=O)CC1)N(Cc1ccc(-c2nnc(C(F)(F)F)o2)cc1)c1cccc(C(F)(F)F)n1 [Compound 21456, N-(4-(5-(trifluoromethyl)-1,3,4-oxadiazol-2-yl)benzyl)-N-(6-(trifluoromethyl)pyridin-2-yl)thiomorpholine-4-carboxamide 1,1-dioxide]	17	578
O=C(N1CCS(=O)(=O)CC1)N(Cc1ccc(-c2nnc(C(F)F)o2)cc1)c1cccc(C(F)(F)F)n1 [Compound 21457, N-(4-(5-(difluoromethyl)-1,3,4-oxadiazol-2-yl)benzyl)-N-(6-(trifluoromethyl)pyridin-2-yl)thiomorpholine-4-carboxamide 1,1-dioxide]	53	190
CC(C)(C)c1ccc(N(Cc2ccc(-c3nnc(C(F)(F)F)o3)cc2)C(=O)N2CCS(=O)(=O)CC2)cc1 [Compound 21458, N-(4-(tert-butyl)phenyl)-N-(4-(5-(trifluoromethyl)-1,3,4-oxadiazol-2-yl)benzyl)thiomorpholine-4-carboxamide 1,1-dioxide]	1	–
CC(C)(C)c1ccc(N(Cc2ccc(-c3nnc(C(F)F)o3)cc2)C(=O)N2CCS(=O)(=O)CC2)cc1 [Compound 21459, N-(4-(tert-butyl)phenyl)-N-(4-(5-(difluoromethyl)-1,3,4-oxadiazol-2-yl)benzyl)thiomorpholine-4-carboxamide 1,1-dioxide]	1	–
CC(C)(C)c1ccc(N(Cc2ccc(-c3nnc(C(F)(F)F)o3)cc2F)C(=O)N2CCS(=O)(=O)CC2)cc1 [Compound 21460, N-(4-(tert-butyl)phenyl)-N-(2-fluoro-4-(5-(trifluoromethyl)-1,3,4-oxadiazol-2-yl)benzyl)thiomorpholine-4-carboxamide 1,1-dioxide]	1	–
CC(C)(C)c1ccc(N(Cc2ccc(-c3nnc(C(F)F)o3)cc2F)C(=O)N2CCS(=O)(=O)CC2)cc1 [Compound 21461, N-(4-(tert-butyl)phenyl)-N-(4-(5-(difluoromethyl)-1,3,4-oxadiazol-2-yl)-2-fluorobenzyl)thiomorpholine-4-carboxamide 1,1-dioxide]	14	731
O=C(N1CCOCC1)N(Cc1ccccc1)Cc1ccc(-c2nnc(C(F)(F)F)o2)cc1 [Compound 21462, N-benzyl-N-(4-(5-(trifluoromethyl)-1,3,4-oxadiazol-2-yl)benzyl)morpholine-4-carboxamide]	7	1420
O=C(N1CCOCC1)N(Cc1ccc(-c2nnc(C(F)(F)F)o2)cc1)Cc1cccnc1 [Compound 21463, N-(pyridin-3-ylmethyl)-N-(4-(5-(trifluoromethyl)-1,3,4-oxadiazol-2-yl)benzyl)morpholine-4-carboxamide]	2	4530
O=C(N1CCOCC1)N(Cc1ccncc1)Cc1ccc(-c2nnc(C(F)(F)F)o2)cc1 [Compound 21464, N-(pyridin-4-ylmethyl)-N-(4-(5-(trifluoromethyl)-1,3,4-oxadiazol-2-yl)benzyl)morpholine-4-carboxamide]	6	1730
CN1CCN(C(=O)N(Cc2ccc(-c3nnc(C(F)F)o3)cc2F)c2cccc(Br)c2)CC1 [Compound 21465, N-(3-bromophenyl)-N-(4-(5-(difluoromethyl)-1,3,4-oxadiazol-2-yl)-2-fluorobenzyl)-4-methylpiperazine-1-carboxamide]	333	30
CN1CCN(C(=O)N(Cc2ccc(-c3nnc(C(F)F)o3)cc2F)c2ccc(Br)cc2)CC1 [Compound 21466, N-(4-bromophenyl)-N-(4-(5-(difluoromethyl)-1,3,4-oxadiazol-2-yl)-2-fluorobenzyl)-4-methylpiperazine-1-carboxamide]	128	78

Reference: patent publication US10717716B2, “1,3,4-oxadiazole derivative compounds as histone deacetylase 6 inhibitor, and the pharmaceutical composition comprising the same” (Chong Kun Dang Pharmaceutical Corp., priority 2015, dated 2020)
